Structures are written as SMILES. pIC50: −log10 of the molar value.

Smurf-1, sequence (Q9HCE7 whole entry): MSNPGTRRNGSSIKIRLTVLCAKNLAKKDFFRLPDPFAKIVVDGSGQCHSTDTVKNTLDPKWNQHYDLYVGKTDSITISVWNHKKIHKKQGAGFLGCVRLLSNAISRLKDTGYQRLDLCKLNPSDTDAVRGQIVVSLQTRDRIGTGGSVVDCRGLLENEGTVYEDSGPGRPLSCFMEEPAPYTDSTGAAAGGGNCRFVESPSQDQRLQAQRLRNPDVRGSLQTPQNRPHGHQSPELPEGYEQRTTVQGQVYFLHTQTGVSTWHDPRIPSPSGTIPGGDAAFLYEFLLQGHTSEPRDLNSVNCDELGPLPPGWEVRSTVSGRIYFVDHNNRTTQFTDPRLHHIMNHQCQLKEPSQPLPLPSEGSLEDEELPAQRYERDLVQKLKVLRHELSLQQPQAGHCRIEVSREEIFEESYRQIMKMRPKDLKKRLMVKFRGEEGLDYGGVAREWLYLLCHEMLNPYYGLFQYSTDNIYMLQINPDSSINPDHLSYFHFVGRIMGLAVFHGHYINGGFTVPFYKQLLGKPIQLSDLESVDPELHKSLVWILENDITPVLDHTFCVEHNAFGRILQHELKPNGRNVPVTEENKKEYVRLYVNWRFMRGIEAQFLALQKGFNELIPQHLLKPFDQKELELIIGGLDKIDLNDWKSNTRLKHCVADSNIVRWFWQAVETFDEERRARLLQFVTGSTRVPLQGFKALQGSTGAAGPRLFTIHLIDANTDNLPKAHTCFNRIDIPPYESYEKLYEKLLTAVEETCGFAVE

The target in the test is Smurf-1 (Homo sapiens (Human), UniProt Q9HCE7). Nature of the test: HECT E3 ligase autoubiquitinylation TR-FRET assay (Smurf-1). The settings on record: 8-point dose-response curve, 3 nM to 10 uM; 45 min incubation. In kind it is biochemical. The text has this:
To determine the HECT E3 ligase selectivity of the compounds, a panel of biochemical HECT E3 ligase autoubiquitinylation assays was employed (Smurf-1, Smurf-2, WWP1, WWP2, ITCH, Nedd4, Nedd4L and E6AP). The conjugation of ubiquitin to a protein substrate is a multistep process. In an initial ATP-requiring step, a thioester bond is formed between the carboxyl terminus of ubiquitin and an internal cystein residue of the ubiquitin-activating enzyme (E1). Activated ubiquitin is then transferred to a specific cystein residue of an ubiquitin-conjugating enzyme (E2). E2s donate ubiquitin to a HECT E3 ligase (E3) from which it is transferred to the substrate protein. HECT E3 ligases can auto-ubiquitinylate. This event is detected in the TR-FRET (Time-Resolved Fluorescence Resonance Energy Transfer) assay used in this panel. The reaction mix contains E1, E2, tagged-E3, biotin-conjugated ubiquitin, the compound and ATP in a suitable buffer and is incubated for 45 minutes to allow auto-ubiquitinylation of the E3 ligase. To measure the extent of ubiquitinylated E3 ligase by TR-FRET, the donor fluorophore Europium cryptate (Eu3+ cryptate), conjugated to streptavidin which subsequently binds to biotinylated ubiquitin, and the modified allophycocyanin XL665 (HTRF® primary acceptor fluorophore) coupled to a tag-specific antibody (HA, His or GST), which recognizes the respective E3 ligase fusion proteins, are added after the reaction is complete. When these two fluorophores are brought together by a bimolecular interaction (in this case ubiquitinylation of the E3 ligase), a portion of the energy captured by the Cryptate during excitation is released through fluorescence emission at 620 nm, while the remaining energy is transferred to XL665. This energy is then released by XL665 as specific fluorescence at 665 nm. Light at 665 nm is emitted only through FRET with Europium.
Test and reference compounds are prepared at 180× [final] in 90% DMSO, and diluted 1:3 in 90% DMSO.
For the biochemical assay panel, 50 nl of the test compounds, reference compounds and buffer/DMSO control are transferred to the respective wells of a 384-well white GREINER “SMALL VOLUME” PS plate. The assay panel is run at room temperature on a Biomek FX liquid handling workstation. To the assay plates containing 50 nl compound or control solutions in 90% DMSO, 4.5 ul of E3 ligase solution were added per well, followed by 4.5 ul of the pre-incubated E1/E2/Ub mix or the pre-diluted ubiquitin (LOW control). Plates are shaken vigorously after each addition. In this assay the compound concentrations range from 3 nM to 10 uM in an 8-point dose-response curve.
After an incubation time of 45 min in the dark, the plates are transferred into the Pherastar fluorescence reader to measure the TR-FRET signal.
(In general: TR-FRET usually uses a lanthanide donor and a delayed reading to cut background.)
`CO[C@H]1C[C@@H](c2onc(C(=O)Nc3c(C)n(C)n(C4CCCCC4)c3=O)c2C)O[C@@H](C(C)(C)C)C1` (single isomer, unassigned) [Example 13a, 5-((2S,4R,6R)-6-(tert-butyl)-4-methoxytetrahydro-2H-pyran-2-yl)-N-(2-cyclohexyl-1,5-dimethyl-3-oxo-2,3-dihydro-1H-pyrazol-4-yl)-4-methylisoxazole-3-carboxamide or 5-((2R,4S,6S)-6-(tert-butyl)-4-methoxytetrahydro-2H-pyran-2-yl)-N-(2-cyclohexyl-1,5-dimethyl-3-oxo-2,3-dihydro-1H-pyrazol-4-yl)-4-methylisoxazole-3-carboxamide] had a pIC50 of 6.54.

For the compound `Cc1c(C(=O)Nc2c(C)n(C)n(C3CCCCC3)c2=O)noc1/C=C/C(C)(C)C` [Example 9, (E)-N-(2-Cyclohexyl-1,5-dimethyl-3-oxo-2,3-dihydro-1H-pyrazol-4-yl)-5-(3,3-dimethylbut-1-en-1-yl)-4-methylisoxazole-3-carboxamide], the pIC50 is 7.24.

`CO[C@@H]1C[C@@H](C(C)(C)C)O[C@@H](c2onc(C(=O)Nc3c(C)n(C)n(C4CCC4)c3=O)c2C)C1.CO[C@@H]1C[C@@H](c2onc(C(=O)Nc3c(C)n(C)n(C4CCC4)c3=O)c2C)O[C@@H](C(C)(C)C)C1` (mixture of isomers) [Example 14, 5-((2R,4R,6S)-6-(tert-butyl)-4-methoxytetrahydro-2H-pyran-2-yl)-N-(2-cyclobutyl-1,5-dimethyl-3-oxo-2,3-dihydro-1H-pyrazol-4-yl)-4-methylisoxazole-3-carboxamide and 5-((2S,4S,6R)-6-(tert-butyl)-4-methoxytetrahydro-2H-pyran-2-yl)-N-(2-cyclobutyl-1,5-dimethyl-3-oxo-2,3-dihydro-1H-pyrazol-4-yl)-4-methylisoxazole-3-carboxamide] had a pIC50 of 5.60. Compared with the last compound, the pIC50 is 1.64 log units lower.

As to `Cc1c(C(=O)Nc2c(C)n(C)n(C3CCCCC3)c2=O)noc1C1CC(Br)C(C)CO1` (centres unmarked) [Example 21.1, 5-(4-Bromo-5-methyltetrahydro-2H-pyran-2-yl)-N-(2-cyclohexyl-1,5-dimethyl-3-oxo-2,3-dihydro-1H-pyrazol-4-yl)-4-methylisoxazole-3-carboxamide], the pIC50 is 6.20.

Turning to `Cc1c(C(=O)Nc2c(C)n(C)n(C3CCCCC3)c2=O)noc1[C@@H]1OCC(C)(C)O[C@H]1C` [Example 20, N-(2-Cyclohexyl-1,5-dimethyl-3-oxo-2,3-dihydro-1H-pyrazol-4-yl)-4-methyl-5-((2R,3S)-3,5,5-trimethyl-1,4-dioxan-2-yl)isoxazole-3-carboxamide], the negative-log IC50 (pIC50) is 6.74.

With `Cc1c(C(=O)Nc2c(C)n(C)n(C3CCCCC3)c2=O)noc1[C@@H]1CCC[C@H](C(C)(C)C)O1` (single isomer, unassigned) [Example 16, 5-((2S,6R)-6-(tert-butyl)tetrahydro-2H-pyran-2-yl)-N-(2-cyclohexyl-1,5-dimethyl-3-oxo-2,3-dihydro-1H-pyrazol-4-yl)-4-methylisoxazole-3-carboxamide or 5-((2R,6S)-6-(tert-butyl)tetrahydro-2H-pyran-2-yl)-N-(2-cyclohexyl-1,5-dimethyl-3-oxo-2,3-dihydro-1H-pyrazol-4-yl)-4-methylisoxazole-3-carboxamide], the pIC50 was 7.43.

As to `Cc1c(C(=O)Nc2c(C)n(C)n(C3CCCCC3)c2=O)noc1C1CCC(C)(C)C1` (centres unmarked) [Example 6.1, N-(2-Cyclohexyl-1,5-dimethyl-3-oxo-2,3-dihydro-1H-pyrazol-4-yl)-5-(3,3-dimethylcyclopentyl)-4-methylisoxazole-3-carboxamide], the negative-log IC50 (pIC50) is 7.64.

For the compound `Cc1c(C(=O)Nc2c(C)n(C)n(C3CCCCC3)c2=O)noc1/C=C\C(C)(C)C` [Example 8, (Z)—N-(2-Cyclohexyl-1,5-dimethyl-3-oxo-2,3-dihydro-1H-pyrazol-4-yl)-5-(3,3-dimethylbut-1-en-1-yl)-4-methylisoxazole-3-carboxamide], the pIC50 was 7.34.

As for `Cc1c(C(=O)Nc2c(C)n(C)n(C3CCCCC3)c2=O)noc1C1CC=CC(C(C)C)O1` (mixture of isomers) [Example 18], the pIC50 was 7.04. This pIC50 lies 0.30 log units lower than the previous one.

Compound `Cc1c(C(=O)Nc2c(C)n(C)n(C3CCCCC3)c2=O)noc1C1OCC(C)(C)CO1` [Example 26, N-(2-Cyclohexyl-1,5-dimethyl-3-oxo-2,3-dihydro-1H-pyrazol-4-yl)-5-(5,5-dimethyl-1,3-dioxan-2-yl)-4-methylisoxazole-3-carboxamide] gave a pIC50 of 6.24.

`CO[C@H]1C[C@@H](c2onc(C(=O)Nc3c(C)n(C)n(C4CCCCC4)c3=O)c2C)O[C@@H](C(C)(C)C)C1` (single isomer, unassigned) [Example 13b, 5-((2S,4R,6R)-6-(tert-butyl)-4-methoxytetrahydro-2H-pyran-2-yl)-N-(2-cyclohexyl-1,5-dimethyl-3-oxo-2,3-dihydro-1H-pyrazol-4-yl)-4-methylisoxazole-3-carboxamide or 5-((2R,4S,6S)-6-(tert-butyl)-4-methoxytetrahydro-2H-pyran-2-yl)-N-(2-cyclohexyl-1,5-dimethyl-3-oxo-2,3-dihydro-1H-pyrazol-4-yl)-4-methylisoxazole-3-carboxamide]: the pIC50 is 6.14.

In the case of `Cc1c(C(=O)Nc2c(C)n(C)n(C3CCCCC3)c2=O)noc1C1=CCC(C(C)C)CC1` (centres unmarked) [Example 1, N-(2-Cyclohexyl-1,5-dimethyl-3-oxo-2,3-dihydro-1H-pyrazol-4-yl)-5-(4-isopropylcyclohex-1-en-1-yl)-4-methylisoxazole-3-carboxamide], the pIC50 was 8.55.

`Cc1c(C(=O)Nc2c(C)n(C)n(C3CCCCC3)c2=O)noc1C1=CCC(C)(C)C1` [Example 3, N-(2-Cyclohexyl-1,5-dimethyl-3-oxo-2,3-dihydro-1H-pyrazol-4-yl)-5-(4,4-dimethylcyclopent-1-en-1-yl)-4-methylisoxazole-3-carboxamide] showed a pIC50 of 8.22. This pIC50 is 0.33 log units lower than that of the compound before.

The compound `Cc1c(C(=O)Nc2c(C)n(C)n(C3CCCCC3)c2=O)noc1[C@@H]1CC=C[C@H](C)O1` (racemic) [Example 19, N-(2-cyclohexyl-1,5-dimethyl-3-oxo-2,3-dihydro-1H-pyrazol-4-yl)-4-methyl-5-((2S,6S)-6-methyl-3,6-dihydro-2H-pyran-2-yl)isoxazole-3-carboxamide and N-(2-cyclohexyl-1,5-dimethyl-3-oxo-2,3-dihydro-1H-pyrazol-4-yl)-4-methyl-5-((2R,6R)-6-methyl-3,6-dihydro-2H-pyran-2-yl)isoxazole-3-carboxamide] had a negative-log IC50 (pIC50) of 5.74. Compared with the last compound, the pIC50 is 2.48 log units lower.

The compound `Cc1c(C(=O)Nc2c(C)n(C)n(C3CCCCC3)c2=O)noc1C1=CCC(C(C)(C)C)CC1` (centres unmarked) [Example 1.4, 5-(4-(tert-Butyl)cyclohex-1-en-1-yl)-N-(2-cyclohexyl-1,5-dimethyl-3-oxo-2,3-dihydro-1H-pyrazol-4-yl)-4-methylisoxazole-3-carboxamide] had a pIC50 of 8.49.

Compound `Cc1c(C(=O)Nc2c(C)n(C)n(C3CCCCC3)c2=O)noc1CCC(C)(C)C` [Example 7, N-(2-Cyclohexyl-1,5-dimethyl-3-oxo-2,3-dihydro-1H-pyrazol-4-yl)-5-(3,3-dimethylbutyl)-4-methylisoxazole-3-carboxamide] gave a pIC50 of 7.72.

Turning to `Cc1c(C(=O)Nc2c(C)n(C)n(C3CCCCC3)c2=O)noc1C1=CCC2(CCCO2)CC1` (centres unmarked) [Example 2.1, N-(2-Cyclohexyl-1,5-dimethyl-3-oxo-2,3-dihydro-1H-pyrazol-4-yl)-4-methyl-5-(1-oxaspiro[4.5]dec-7-en-8-yl)isoxazole-3-carboxamide], the negative logarithm of the IC50 (pIC50) was 7.19. Compared with the last compound, the pIC50 is 0.53 log units lower.

In turn, `CC1=CCC(c2onc(C(=O)Nc3c(C)n(C)n(C4CCCCC4)c3=O)c2C)OC1` (centres unmarked) [Example 21.2, N-(2-cyclohexyl-1,5-dimethyl-3-oxo-2,3-dihydro-1H-pyrazol-4-yl)-4-methyl-5-(5-methyl-3,6-dihydro-2H-pyran-2-yl)isoxazole-3-carboxamide] showed a pIC50 of 6.31.

For `Cc1c(C(=O)Nc2c(C)n(C)n(C3CCCCC3)c2=O)noc1C1=CCC2(CCOC2)CC1` (centres unmarked) [Example 4, N-(2-Cyclohexyl-1,5-dimethyl-3-oxo-2,3-dihydro-1H-pyrazol-4-yl)-4-methyl-5-(2-oxaspiro[4.5]dec-7-en-8-yl)isoxazole-3-carboxamide], the pIC50 was 7.00.

Consider `Cc1c(C(=O)Nc2c(C)n(C)n(C3CCCCC3)c2=O)noc1C1=CCCCC1(C)C` [Example 1.2, N-(2-Cyclohexyl-1,5-dimethyl-3-oxo-2,3-dihydro-1H-pyrazol-4-yl)-5-(6,6-dimethylcyclohex-1-en-1-yl)-4-methylisoxazole-3-carboxamide], for which the pIC50 is 7.85.

The term pIC50 denotes the IC50 on a negative log10 scale, so that one unit is a factor of ten. Low values mean a high IC50, high ones a low IC50.
